Several values for one entry are separate records, joined by “and”; a condition that tells them apart may be missing. Equal values may be shown once.
What was measured:
[1] = molecular target: T1, M. tb EgtD (Mycobacterium tuberculosis, UniProt P9WN47); test: biochemical
T1 construct: thioredoxin (N, cleaved yes); polyhistidine (N, cleaved yes); made in house; host or cells: E. coli (T7 cells), pET32-derived vector
T1 sequence (P9WN47 1-321): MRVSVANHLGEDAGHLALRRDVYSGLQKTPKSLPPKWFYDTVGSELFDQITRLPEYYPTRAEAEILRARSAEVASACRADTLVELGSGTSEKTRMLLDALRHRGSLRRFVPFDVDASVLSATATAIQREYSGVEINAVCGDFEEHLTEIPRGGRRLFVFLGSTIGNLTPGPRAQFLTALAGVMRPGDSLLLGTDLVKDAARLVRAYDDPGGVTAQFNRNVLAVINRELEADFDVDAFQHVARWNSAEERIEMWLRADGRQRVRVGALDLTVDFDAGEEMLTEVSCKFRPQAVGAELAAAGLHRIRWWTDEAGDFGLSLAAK

[2] = test system: M. tb; design: method as in PMID 22100163, PMID 24586159, PMID 22988030; conditions: macrophage cells and infected mice; cited from earlier work
[3] = test system: Mycobacterium marinum (M. marinum); conditions: cited from earlier work

SMILES	EC50 [1]	further results
CS(=O)(=O)c1ccc(-c2nc(-c3ccc(F)cc3)c(-c3ccncc3)[nH]2)cc1 [Cay-10571, reference compound]	< 20 µM and 7 µM	
O=C(O)CNc1cccc(C(=O)NCCc2c[nH]cn2)c1 [HD1]	89 ± 19 µM	
O=C(O)C(Cc1cnc[nH]1)n1cccc1 (centres unmarked) [HD2]	33 ± 3 µM	
O=C(O)C(Cc1cnc[nH]1)NC(=S)NCc1ccccc1 (centres unmarked) [HD3]	47 ± 5 µM	
CCOc1ccccc1CN(CC)C(=O)[C@H](N)Cc1c[nH]cn1 [HD4]	25 ± 4 µM	
CN(Cc1ccc(Oc2ccccc2)cc1)C(=O)[C@H](N)Cc1c[nH]cn1 [HD5]	30 ± 3 µM	
O=C(N[C@@H](Cc1c[nH]cn1)C(=O)O)C1CC=CC1 [HD6]	85 ± 19 µM	fold decrease in inhibitory activity versus HD2 and HD3 ([1]; ratio of EC50 values): 1.5–2.5 fold
CN(C)CCN(Cc1cnc[nH]1)C(=O)CN(C)Cc1ccccc1 [HD7]	85 ± 12 µM	
Cc1ccc(C(C)C(=O)N(CCN(C)C)Cc2cnc[nH]2)cc1 (centres unmarked) [HD8]	160 ± 60 µM	
CCOc1ccccc1OCCN(C)Cc1cnc[nH]1 [HD9]	36 ± 4 µM	
Cc1cccc(C(C(=O)NCCc2c[nH]cn2)N(C)C)c1 (centres unmarked) [HD10]	32 ± 4 µM	
Cc1ccc(NC(=O)c2ccc(CN3CCN(C)CC3)cc2)cc1Nc1nccc(-c2cccnc2)n1 [Imatinib]		intracellular replication of M. tb [2]: decrease in the intracellular replication; effect of combination with Rifampicin ([3]; M. marinum-infected macrophage cells, Imatinib and Rifampicin): synergistic effect; intracellular replication of M. marinum ([3]; macrophage cells and infected mice): decrease in the intracellular replication
O=c1cc(N2CCOCC2)oc2c1ccc1ccccc12 [NU-7026, reference compound]	< 20 µM and 5.4 µM	
Cc1cc(C(C)Nc2ccccc2)c2nc(N3CCOCC3)cc(=O)n2c1 (centres unmarked) [TGX-221, reference compound]	< 20 µM and 15.2 µM	
